Measured values: patent US10675253B2, “Methods of diagnosis and treatment involving nitrite” (Board of Supervisors of Louisiana State University and …, priority 2017, dated 2020)
Like-named read-outs stand apart in the source and are kept apart here.

Legend:
[1] = nitrite reduction to NO facilitated by ascorbic acid, DADS, or DATS; conditions: FIGS. 4, 6; over one hour
Text: FIG. 4 is a line graph of experiments showing nitrite reduction to NO facilitated by ascorbic acid, DADS, or DATS;
FIG. 5 is a pair of line graphs of two experiments showing nitrite reduction to NO facilitated by ascorbic acid over one hour;
FIG. 6 is a pair of line graphs of two experiments showing nitrite reduction to NO facilitated by DADS over one hour;
FIG. 7 is a pair of line graphs of two experiments showing nitrite reduction to NO facilitated by DATS over one hour;
Turning to FIGS. 1-7, an embodiment of the disclosed invention, including a method of treatment of various conditions by increasing nitrite conversion to nitric oxide via DADS is described. This embodiment of the disclosed invention describes chemical reactions that may be useful for stimulating nitrite conversion to nitric oxide, namely diallyl disulfide (DADS) reduction of nitrite to nitric oxide. […] This would be useful for various purposes including unique ways to stimulate nitrite reduction to nitric oxide within an organism.
While it has been shown that increasing NO levels can be therapeutic for a number of conditions, the biochemical mechanism of nitrite reduction to NO, and thereby increasing NO levels, is poorly understood. Some agents can facilitate such reduction, such as ascorbic acid, but do so weakly. […]

xanthine oxidase (XO) = xanthine oxidase (XO) (Homo sapiens, UniProt P47989); test: XO dependent nitrite reduction to NO / XO activity; type: biochemical
Chain of xanthine oxidase (XO) (P47989 whole entry, species assumed): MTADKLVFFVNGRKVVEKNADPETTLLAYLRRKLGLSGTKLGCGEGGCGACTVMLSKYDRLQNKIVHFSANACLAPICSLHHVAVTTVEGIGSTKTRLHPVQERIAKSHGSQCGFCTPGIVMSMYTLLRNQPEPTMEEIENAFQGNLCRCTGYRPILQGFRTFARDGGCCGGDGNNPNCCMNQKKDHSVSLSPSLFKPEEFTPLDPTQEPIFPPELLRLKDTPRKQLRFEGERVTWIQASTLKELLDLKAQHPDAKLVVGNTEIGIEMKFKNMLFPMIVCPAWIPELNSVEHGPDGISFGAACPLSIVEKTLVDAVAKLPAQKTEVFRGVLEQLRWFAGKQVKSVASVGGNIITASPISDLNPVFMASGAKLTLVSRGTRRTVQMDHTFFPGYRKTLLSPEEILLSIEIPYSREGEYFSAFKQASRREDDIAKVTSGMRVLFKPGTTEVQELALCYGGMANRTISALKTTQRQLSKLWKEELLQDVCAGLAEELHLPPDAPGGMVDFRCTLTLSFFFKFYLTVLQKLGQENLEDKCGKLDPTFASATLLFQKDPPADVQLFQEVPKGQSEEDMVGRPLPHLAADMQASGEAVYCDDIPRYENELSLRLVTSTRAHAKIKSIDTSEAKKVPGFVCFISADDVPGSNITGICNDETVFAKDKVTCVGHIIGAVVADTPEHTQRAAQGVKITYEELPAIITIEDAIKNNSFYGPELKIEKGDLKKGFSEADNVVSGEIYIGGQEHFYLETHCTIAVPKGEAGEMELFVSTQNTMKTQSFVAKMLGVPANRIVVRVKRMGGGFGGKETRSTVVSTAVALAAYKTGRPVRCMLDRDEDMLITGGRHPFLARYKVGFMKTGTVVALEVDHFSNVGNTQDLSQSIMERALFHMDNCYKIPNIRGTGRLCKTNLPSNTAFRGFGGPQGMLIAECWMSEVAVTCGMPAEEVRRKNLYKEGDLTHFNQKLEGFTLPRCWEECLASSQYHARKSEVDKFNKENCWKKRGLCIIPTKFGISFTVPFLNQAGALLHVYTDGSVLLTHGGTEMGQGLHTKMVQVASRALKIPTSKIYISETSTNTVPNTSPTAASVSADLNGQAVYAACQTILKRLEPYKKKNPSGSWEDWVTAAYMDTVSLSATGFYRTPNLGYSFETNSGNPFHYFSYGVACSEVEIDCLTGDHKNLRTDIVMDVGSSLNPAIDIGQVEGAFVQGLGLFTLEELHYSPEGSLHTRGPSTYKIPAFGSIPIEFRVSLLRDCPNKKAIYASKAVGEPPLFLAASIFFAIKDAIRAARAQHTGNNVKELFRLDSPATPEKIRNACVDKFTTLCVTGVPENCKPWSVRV
Text: Referring to FIGS. 1-8, a further embodiment of the disclosed invention, including a method of treatment of various conditions by increasing XO associated nitrite conversion to nitric oxide is described. This embodiment of the disclosed invention describes chemical reactions that may be useful for stimulating xanthine oxidase (XO) to increase nitrite conversion to nitric oxide, namely diallyl trisulfide (DATS) stimulation of XO reduction of nitrite to nitric oxide. This would be useful for various purposes including unique ways to stimulate nitrite reduction to nitric oxide within an organism.
DATS may therefore be administered alone, or for example, with nitrite and/or XO, as a therapeutic for known NO mediated conditions, including inflammation, wound healing, and infections. DATS can be administered in a variety of methods, including nanoformulation compounds, especially for creams or lotions.

[2] = ascorbic acid as comparison agent; general statement; cited from earlier work

With `C=CCSSCC=C` [DADS, diallyl disulfide] the “nitrite reduction to NO” value [1] was “selectively stimulate nitrite reduction to NO”.
For `C=CCSSSCC=C` [DATS, diallyl trisulfide], the “XO dependent nitrite reduction to NO” value (xanthine oxidase (XO)) was “selectively increases XO dependent nitrite reduction to NO” and the “XO activity & NO production” value (xanthine oxidase (XO); FIG. 8) was “differentially affects XO activity & NO production”.
For `O=C1O[C@H]([C@@H](O)CO)C(O)=C1O` [ascorbic acid], the “nitrite reduction to NO” value [2] is given as “weakly”.
